Molecules are shown by their SMILES. pIC50: −log10 of the molar value. Where two headings read alike, the source gives them in different places.

One assay concerns the target Human Jak2 kinase domain (Homo sapiens (Human), UniProt O60674). The experiment in a line: Jak2 Inhibition Assay (Omnia kinase assay). Type of assay: biochemical. The settings on record: read-out: Jak2 Enzyme IC50.
Assay [1] concerns the target TrkA (histidine-tagged recombinant human TrkA, cytoplasmic domain) (Homo sapiens (Human), UniProt P04629). The assay can be described thus: TrkA ELISA Assay. The settings on record: Table 1; ELISA, 500 μM ATP; read-out: TrkA Enzyme IC50. Type of assay: biochemical. The procedure, abridged:
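ELISA read-out: a peroxidase-linked anti-phosphotyrosine antibody (PY20, 0.2 μg/mL) with TMB substrate, absorbance at 450 nm after acid stop. The plate-bound substrate was poly(Glu,Ala,Tyr; 6:3:1) at 0.025 mg/mL, phosphorylated by the recombinant His-tagged human TrkA cytoplasmic domain in the presence of inhibitors.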
(ELISA stands for enzyme-linked immunosorbent assay.)

Where [2] appears, read: Table 1, 500 μM ATP, >1000 nM when >50% inhibition not observed at 1000 nM.

Sequence of Human Jak2 kinase domain (O60674 808-1132): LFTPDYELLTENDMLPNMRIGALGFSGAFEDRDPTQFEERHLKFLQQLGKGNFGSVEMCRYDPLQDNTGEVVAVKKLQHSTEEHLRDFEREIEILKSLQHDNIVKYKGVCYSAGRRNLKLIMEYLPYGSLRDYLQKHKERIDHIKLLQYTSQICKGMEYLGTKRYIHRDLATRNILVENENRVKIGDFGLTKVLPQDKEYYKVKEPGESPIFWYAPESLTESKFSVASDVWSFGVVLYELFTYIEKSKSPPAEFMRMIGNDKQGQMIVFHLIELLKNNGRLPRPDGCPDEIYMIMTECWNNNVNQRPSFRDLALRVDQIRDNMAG
Sequence of TrkA (histidine-tagged recombinant human TrkA, cytoplasmic domain) (P04629 440-796): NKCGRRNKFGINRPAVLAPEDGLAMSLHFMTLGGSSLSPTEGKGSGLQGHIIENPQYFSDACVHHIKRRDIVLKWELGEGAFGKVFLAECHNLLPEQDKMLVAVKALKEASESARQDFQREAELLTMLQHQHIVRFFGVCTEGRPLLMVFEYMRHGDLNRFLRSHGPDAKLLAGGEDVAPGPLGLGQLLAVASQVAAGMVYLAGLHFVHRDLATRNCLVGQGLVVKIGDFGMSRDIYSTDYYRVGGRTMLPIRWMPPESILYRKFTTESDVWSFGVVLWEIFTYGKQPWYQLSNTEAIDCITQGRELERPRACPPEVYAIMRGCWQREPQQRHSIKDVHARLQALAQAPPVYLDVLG

For the compound `CC1(C)CC[C@H](c2cc(F)ccc2F)N1c1ccn2ncc(C(N)=O)c2n1` [Example 67, (R)-5-(5-(2,5-difluorophenyl)-2,2-dimethylpyrrolidin-1-yl)pyrazolo[1,5-a]pyrimidine-3-carboxamide], the pIC50 at Human Jak2 kinase domain (setting [2]) is less than 6.00; in assay [1], 8.29.
As to `COc1ccc(F)cc1[C@H]1CCCN1c1ccn2ncc(C(=O)NC3CC3)c2n1` [Example 48, (R)—N-cyclopropyl-5-(2-(5-fluoro-2-methoxyphenyl)pyrrolidin-1-yl)pyrazolo[1,5-a]pyrimidine-3-carboxamide], the pIC50 on Human Jak2 kinase domain is 6.37; in assay [1], 9.22.
With `O=C(N[C@@H]1CCC[C@H]1O)c1cnn2ccc(N3CCC[C@@H]3c3cncc(F)c3)nc12` [Example 133, 5-((R)-2-(5-fluoropyridin-3-yl)pyrrolidin-1-yl)-N-((1R,2R)-2-hydroxycyclopentyl)pyrazolo[1,5-a]pyrimidine-3-carboxamide], the results for the pIC50 (on Human Jak2 kinase domain (setting [2]); in assay [1]) were less than 6.00 and 7.80, respectively.
Turning to `NS(=O)(=O)CCNC(=O)c1cnn2ccc(N3CCC[C@@H]3c3cc(F)ccc3F)nc12` [Example 47, (R)-5-(2-(2,5-difluorophenyl)pyrrolidin-1-yl)-N-(2-sulfamoylethyl)pyrazolo[1,5-a]pyrimidine-3-carboxamide], the values for the pIC50 (on Human Jak2 kinase domain; in assay [1]) were less than 6.00 and 8.82, respectively.
Take `COc1ncc(F)cc1[C@H]1CCCN1c1ccn2ncc(C(=O)NCC(O)CO)c2n1` (stereo partly drawn) [Example 149, N-(2,3-dihydroxypropyl)-5-((R)-2-(5-fluoro-2-methoxypyridin-3-yl)pyrrolidin-1-yl)pyrazolo[1,5-a]pyrimidine-3-carboxamide]: the pIC50 was less than 6.00 at Human Jak2 kinase domain (setting [2]) and 8.21 in assay [1].
The matching figures for `CC(C)(O)CNC(=O)c1cnn2ccc(N3CCC[C@@H]3c3cc(F)ccc3F)nc12` [Example 17, (R)-5-(2-(2,5-difluorophenyl)pyrrolidin-1-yl)-N-(2-hydroxy-2-methylpropyl)pyrazolo[1,5-a]pyrimidine-3-carboxamide]: less than 6.00 and 8.67.
As to `CC[C@@H](CO)NC(=O)c1cnn2ccc(N3CCC[C@@H]3c3cc(F)ccc3F)nc12` [Example 178, 5-((R)-2-(2,5-difluorophenyl)pyrrolidin-1-yl)-N-((S)-1-hydroxybutan-2-yl)pyrazolo[1,5-a]pyrimidine-3-carboxamide], the pIC50 at Human Jak2 kinase domain (setting [2]) was less than 6.00; in assay [1], 8.60.
The like results for `CC(C)(CN1CCOCC1)NC(=O)c1cnn2ccc(N3CCC[C@@H]3c3cc(F)ccc3F)nc12` [Example 9, (R)-5-(2-(2,5-difluorophenyl)pyrrolidin-1-yl)-N-(2-methyl-1-morpholinopropan-2-yl)pyrazolo[1,5-a]pyrimidine-3-carboxamide] were, in that order, less than 6.00 and 8.46.
The like results for `Cn1cc(F)cc([C@H]2CCCN2c2ccn3ncc(C(=O)N[C@H](CO)C(C)(C)C)c3n2)c1=O` [Example 233, 5-((R)-2-(5-fluoro-1-methyl-2-oxo-1,2-dihydropyridin-3-yl)pyrrolidin-1-yl)-N-((S)-1-hydroxy-3,3-dimethylbutan-2-yl)pyrazolo[1,5-a]pyrimidine-3-carboxamide] were, in that order, less than 6.00 and 7.12.
The like results for `NC(=O)c1cnn2ccc(N3CCC[C@@H]3c3cc(F)ccc3C(F)(F)F)nc12` [Example 64, (R)-5-(2-(5-fluoro-2-(trifluoromethyl)phenyl)pyrrolidin-1-yl)pyrazolo[1,5-a]pyrimidine-3-carboxamide] were, in that order, 6.24 and 8.80.
On to `Cn1cc(F)cc([C@H]2CCCN2c2ccn3ncc(C(=O)N[C@@H]4CCCC[C@H]4O)c3n2)c1=O` [Example 234, 5-((R)-2-(5-fluoro-1-methyl-2-oxo-1,2-dihydropyridin-3-yl)pyrrolidin-1-yl)-N-((1R,2R)-2-hydroxycyclohexyl)pyrazolo[1,5-a]pyrimidine-3-carboxamide], for which the negative-log IC50 (pIC50) at Human Jak2 kinase domain (setting [2]) is less than 6.00; in assay [1], 7.97.
The matching figures for `O=C(NCCN1CCOCC1)c1cnn2ccc(N3CCC[C@@H]3c3cc(F)ccc3F)nc12` [Example 4, (R)-5-(2-(2,5-difluorophenyl)pyrrolidin-1-yl)-N-(2-morpholinoethyl)pyrazolo[1,5-a]pyrimidine-3-carboxamide]: less than 6.00 and 9.02.
The matching figures for `O=C(NC[C@@H](O)CO)c1cnn2ccc(N3CCC[C@@H]3c3cc(F)ccc3F)nc12` [Example 26, 5-((R)-2-(2,5-difluorophenyl)pyrrolidin-1-yl)-N—((R)-2,3-dihydroxypropyl)pyrazolo[1,5-a]pyrimidine-3-carboxamide]: less than 6.00 and 8.89.
The like results for `Cn1cc(F)cc([C@H]2CCCN2c2ccn3ncc(C(=O)NCC4CC4)c3n2)c1=O` [Example 232, (R)-N-(cyclopropylmethyl)-5-(2-(5-fluoro-1-methyl-2-oxo-1,2-dihydropyridin-3-yl)pyrrolidin-1-yl)pyrazolo[1,5-a]pyrimidine-3-carboxamide] were, in that order, less than 6.00 and 8.35.
With `O=C(c1cnn2ccc(N3CCC[C@@H]3c3cncc(F)c3)nc12)N1CC[C@H](O)C1` [Example 128, (5-((R)-2-(5-fluoropyridin-3-yl)pyrrolidin-1-yl)pyrazolo[1,5-a]pyrimidin-3-yl)((S)-3-hydroxypyrrolidin-1-yl)methanone], the negative-log IC50 (pIC50) is less than 6.00 at Human Jak2 kinase domain (setting [2]) and 5.59 in assay [1].
As to `O=C(NC1CC1)c1cnn2ccc(N3CCC[C@@H]3c3cc(F)ccc3F)nc12` [Example 13, (R)—N-cyclopropyl-5-(2-(2,5-difluorophenyl)pyrrolidin-1-yl)pyrazolo[1,5-a]pyrimidine-3-carboxamide], the pIC50 on Human Jak2 kinase domain (setting [2]) is less than 6.00; in assay [1] it was 9.30.
For the compound `CC(C)[C@@H](CO)NC(=O)c1cnn2ccc(N3CCC[C@@H]3c3cncc(F)c3)nc12` [Example 121, 5-((R)-2-(5-fluoropyridin-3-yl)pyrrolidin-1-yl)-N-((S)-1-hydroxy-3-methylbutan-2-yl)pyrazolo[1,5-a]pyrimidine-3-carboxamide], the results for the pIC50 (on Human Jak2 kinase domain (setting [2]); in assay [1]) were less than 6.00 and 6.74, respectively.
The like results for `COc1ncc(F)cc1[C@H]1CCCN1c1ccn2ncc(C(=O)NCCO)c2n1` [Example 155, (R)-5-(2-(5-fluoro-2-methoxypyridin-3-yl)pyrrolidin-1-yl)-N-(2-hydroxyethyl)pyrazolo[1,5-a]pyrimidine-3-carboxamide] were, in that order, less than 6.00 and 9.70.
Turning to `O=C(NOCC1CC1)c1cnn2ccc(N3CCC[C@@H]3c3cc(F)ccc3F)nc12` [Example 66, (R)—N-(cyclopropylmethoxy)-5-(2-(2,5-difluorophenyl)pyrrolidin-1-yl)pyrazolo[1,5-a]pyrimidine-3-carboxamide], the results for the pIC50 (on Human Jak2 kinase domain (setting [2]); in assay [1]) were less than 6.00 and 9.24, respectively.
Consider `O=C(O)CC1CCN(C(=O)c2cnn3ccc(N4CCC[C@@H]4c4cc(F)ccc4F)nc23)CC1` [Example 12, (R)-2-(1-(5-(2-(2,5-difluorophenyl)pyrrolidin-1-yl)pyrazolo[1,5-a]pyrimidine-3-carbonyl)piperidin-4-yl)acetic acid], for which the figures for the pIC50 (on Human Jak2 kinase domain; in assay [1]) were less than 6.00 and 6.62, respectively.

For orientation: pIC50 means the IC50 on a negative log10 scale, so that one unit is a factor of ten.
